The results in this text go back to ChEMBL document CHEMBL5465560, “Selectivity Literature for EUbOPEN Chemogenomic Library” (2024).

The target in data set [1] is T1, Ribosomal protein S6 kinase alpha-1 (Homo sapiens, UniProt Q15418). Briefly: Selectivity interaction (Kinase panel (Z-LYTE Assay)) EUB0001632a RPS6KA1. To be noted: at 10 µM.
Data set [2] has as its target Serine/threonine-protein kinase PLK2 (Homo sapiens, UniProt Q9NYY3). The data set is described as follows: Selectivity interaction (KinomeScan (DiscoverX)) EUB0001619a PLK2. Particulars: at 1 µM.
In data set [3] the target is Atypical kinase COQ8A, mitochondrial (Homo sapiens, UniProt Q8NI60). Briefly: Selectivity interaction (KinomeScan (DiscoverX)) EUB0000666a ADCK3. To be noted: at 10 µM.
Data set [4] deals with Tyrosine-protein kinase ABL1 (Homo sapiens), P00519 [E255K]. The data set is described as follows: (§1) Selectivity interaction (SelectScreen profiling (Invitrogen)) EUB0000607a ABL1. Particulars: at 2 µM.
For data set [5], the system named is Tyrosine-protein kinase ABL1 (Homo sapiens), P00519 [G250E]. The description is as §1. To be noted: at 2 µM.
Data set [6] concerns Tyrosine-protein kinase ABL1 (Homo sapiens), P00519 [T315I]. The description is as §1. To be noted: at 2 µM.
Data set [7] relates to Tyrosine-protein kinase ABL1 (Homo sapiens), P00519 [Y253F]. Described as §1. Particulars: at 2 µM.
Data set [8] has as its target Tyrosine-protein kinase ABL1 (Homo sapiens, UniProt P00519). The description is as §1. To be noted: at 2 µM.
In data set [9] the target is STE20/SPS1-related proline-alanine-rich protein kinase (Homo sapiens) (UniProt Q9UEW8). To be noted: at 10 µM.
Data set [10] deals with Calcium/calmodulin-dependent protein kinase type 1D (Homo sapiens) (UniProt Q8IU85). Briefly: Selectivity interaction (ActivX KiNativ screen (kinase selectivity in THP-1 cell lysates)) EUB0000639a CAMK1D. In kind it is subcellular. Particulars: lysate, at 0.2 µM.
Data set [11] concerns the target T1, Ribosomal protein S6 kinase alpha-1. Briefly: Selectivity interaction (Kinase panel (Invitrogen)) EUB0000639a RPS6KA1. Particulars: at 200 nM.
For data set [12], the target named is Tyrosine-protein kinase FRK (Homo sapiens) (UniProt P42685). The data set is described as follows: Selectivity interaction (ProQinase) EUB0000171b FRK.
The target in data set [13] is aryl hydrocarbon receptor (AHR) (Homo sapiens, UniProt P35869). The data set is described as follows: Selectivity interaction (Panel of kinases, GPCRs, ion channels and transporters (enzymatic assay)) EUB0000223bCl AHR.
Data set [14] has as its target Cyclin-dependent kinase 13 (Homo sapiens, UniProt Q14004). The data set is described as follows: Selectivity interaction (KinomeScan (DiscoverX)) EUB0000655a CDK13. Particulars: at 10 µM.
Data set [15] deals with Dual specificity protein kinase CLK2 (Homo sapiens, UniProt P49760). The data set is described as follows: Selectivity interaction (KinomeScan (DiscoverX)) EUB0000092b CLK2. Particulars: at 10 µM.
The target in data set [16] is T2, Mitogen-activated protein kinase 12 (Homo sapiens) (UniProt P53778).
T2 sequence (whole entry): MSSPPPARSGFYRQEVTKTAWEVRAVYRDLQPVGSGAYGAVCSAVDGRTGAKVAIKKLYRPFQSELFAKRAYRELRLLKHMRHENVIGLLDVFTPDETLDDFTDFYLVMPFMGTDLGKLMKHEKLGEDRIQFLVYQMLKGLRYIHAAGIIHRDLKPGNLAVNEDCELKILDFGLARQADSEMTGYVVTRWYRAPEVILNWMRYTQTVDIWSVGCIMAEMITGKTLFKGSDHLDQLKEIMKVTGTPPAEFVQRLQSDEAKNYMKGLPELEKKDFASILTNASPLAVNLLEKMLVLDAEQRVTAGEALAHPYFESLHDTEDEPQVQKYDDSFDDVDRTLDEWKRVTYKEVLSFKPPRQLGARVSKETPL
The data set is described as follows: Selectivity interaction (KinomeScan (DiscoverX)) EUB0000092b MAPK12. To be noted: at 10 µM.

Data set [17] has as its target Myosin light chain kinase, smooth muscle (Homo sapiens, UniProt Q15746). The data set is described as follows: Selectivity interaction (KinomeScan (DiscoverX)) EUB0000092b MYLK. Particulars: at 10 µM.
In data set [18] the target is T3, Bromodomain-containing protein 1 (Homo sapiens) (UniProt O95696).
T3 sequence (whole entry): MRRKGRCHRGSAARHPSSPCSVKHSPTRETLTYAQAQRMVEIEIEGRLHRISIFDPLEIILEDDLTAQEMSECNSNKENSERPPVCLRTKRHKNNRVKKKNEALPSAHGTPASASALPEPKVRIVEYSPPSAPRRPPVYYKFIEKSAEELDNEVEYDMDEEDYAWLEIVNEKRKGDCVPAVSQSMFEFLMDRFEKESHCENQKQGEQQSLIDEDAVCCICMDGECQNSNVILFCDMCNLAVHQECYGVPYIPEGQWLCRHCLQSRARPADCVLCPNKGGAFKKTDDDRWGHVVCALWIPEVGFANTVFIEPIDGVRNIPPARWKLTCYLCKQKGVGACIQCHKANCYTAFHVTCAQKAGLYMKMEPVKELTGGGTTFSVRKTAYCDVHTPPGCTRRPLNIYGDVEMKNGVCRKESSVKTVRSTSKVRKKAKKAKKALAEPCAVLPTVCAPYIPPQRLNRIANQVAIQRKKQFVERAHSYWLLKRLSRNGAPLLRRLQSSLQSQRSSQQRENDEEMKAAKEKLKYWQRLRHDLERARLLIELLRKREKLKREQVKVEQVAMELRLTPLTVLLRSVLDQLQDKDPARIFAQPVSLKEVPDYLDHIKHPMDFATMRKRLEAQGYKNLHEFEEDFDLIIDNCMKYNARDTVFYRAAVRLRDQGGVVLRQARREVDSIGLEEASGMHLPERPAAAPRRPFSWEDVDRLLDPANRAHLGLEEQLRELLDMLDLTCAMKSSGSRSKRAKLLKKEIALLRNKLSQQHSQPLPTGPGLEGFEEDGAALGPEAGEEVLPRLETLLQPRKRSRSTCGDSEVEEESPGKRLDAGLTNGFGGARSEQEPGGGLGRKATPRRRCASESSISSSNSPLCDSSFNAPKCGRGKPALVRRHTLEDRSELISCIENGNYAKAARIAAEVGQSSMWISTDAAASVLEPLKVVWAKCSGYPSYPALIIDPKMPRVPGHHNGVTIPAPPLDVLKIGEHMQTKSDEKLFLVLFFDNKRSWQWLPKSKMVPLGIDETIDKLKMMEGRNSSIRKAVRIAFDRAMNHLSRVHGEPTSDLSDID
Briefly: Selectivity interaction (Human bromodomain panel (DSF assay)) EUB0000233b BRD1. For orientation: Differential scanning fluorimetry follows unfolding on heating by fluorescence.

Data set [19] addresses Microtubule-associated serine/threonine-protein kinase 3 (Homo sapiens) (UniProt O60307). Briefly: Selectivity interaction (Kinase panel (KiNativ target engagement assay in Jurkat cells)) EUB0001635a MAST3. In kind it is cell-based. To be noted: Selectivity number of off-targets 0.0, Selectivity number of targets 233.0, Source Knowledge https://www.sciencedirect.com/science/article/pii/S2451945619300674?via%3Dihub, at 1 µM.

Chain of Tyrosine-protein kinase FRK (Homo sapiens) (P42685 whole entry): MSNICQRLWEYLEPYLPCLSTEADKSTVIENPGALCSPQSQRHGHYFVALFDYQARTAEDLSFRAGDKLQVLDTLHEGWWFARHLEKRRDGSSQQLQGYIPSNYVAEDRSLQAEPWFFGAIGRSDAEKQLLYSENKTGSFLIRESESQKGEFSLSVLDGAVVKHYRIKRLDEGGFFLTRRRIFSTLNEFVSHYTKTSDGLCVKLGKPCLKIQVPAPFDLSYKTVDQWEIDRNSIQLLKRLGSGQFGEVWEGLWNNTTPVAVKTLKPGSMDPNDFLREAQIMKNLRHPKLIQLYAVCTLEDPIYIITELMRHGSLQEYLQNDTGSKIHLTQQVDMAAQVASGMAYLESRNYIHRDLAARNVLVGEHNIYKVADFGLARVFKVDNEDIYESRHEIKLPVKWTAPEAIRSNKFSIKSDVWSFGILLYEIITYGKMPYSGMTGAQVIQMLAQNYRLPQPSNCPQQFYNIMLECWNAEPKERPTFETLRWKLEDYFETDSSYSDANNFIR
T1 sequence (Q15418 whole entry): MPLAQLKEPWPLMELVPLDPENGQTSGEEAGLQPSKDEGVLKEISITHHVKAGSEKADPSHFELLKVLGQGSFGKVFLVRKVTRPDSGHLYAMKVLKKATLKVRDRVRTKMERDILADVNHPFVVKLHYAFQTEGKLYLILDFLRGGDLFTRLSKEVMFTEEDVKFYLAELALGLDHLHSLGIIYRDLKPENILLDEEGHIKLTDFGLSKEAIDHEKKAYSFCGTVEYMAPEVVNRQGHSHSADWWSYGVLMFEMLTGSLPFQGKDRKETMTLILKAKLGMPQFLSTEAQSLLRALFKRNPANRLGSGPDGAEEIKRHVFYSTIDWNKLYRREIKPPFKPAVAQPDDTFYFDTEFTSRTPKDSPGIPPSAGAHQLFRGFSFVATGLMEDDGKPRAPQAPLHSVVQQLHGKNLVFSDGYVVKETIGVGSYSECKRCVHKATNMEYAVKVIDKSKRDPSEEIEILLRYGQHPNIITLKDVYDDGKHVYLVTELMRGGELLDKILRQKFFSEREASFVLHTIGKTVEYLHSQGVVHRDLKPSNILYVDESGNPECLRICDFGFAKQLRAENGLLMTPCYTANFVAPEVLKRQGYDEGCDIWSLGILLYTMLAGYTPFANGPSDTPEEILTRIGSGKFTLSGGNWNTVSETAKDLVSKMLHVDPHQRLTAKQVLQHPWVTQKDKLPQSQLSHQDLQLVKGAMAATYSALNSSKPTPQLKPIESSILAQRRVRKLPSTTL
Chain of aryl hydrocarbon receptor (AHR) (P35869 whole entry): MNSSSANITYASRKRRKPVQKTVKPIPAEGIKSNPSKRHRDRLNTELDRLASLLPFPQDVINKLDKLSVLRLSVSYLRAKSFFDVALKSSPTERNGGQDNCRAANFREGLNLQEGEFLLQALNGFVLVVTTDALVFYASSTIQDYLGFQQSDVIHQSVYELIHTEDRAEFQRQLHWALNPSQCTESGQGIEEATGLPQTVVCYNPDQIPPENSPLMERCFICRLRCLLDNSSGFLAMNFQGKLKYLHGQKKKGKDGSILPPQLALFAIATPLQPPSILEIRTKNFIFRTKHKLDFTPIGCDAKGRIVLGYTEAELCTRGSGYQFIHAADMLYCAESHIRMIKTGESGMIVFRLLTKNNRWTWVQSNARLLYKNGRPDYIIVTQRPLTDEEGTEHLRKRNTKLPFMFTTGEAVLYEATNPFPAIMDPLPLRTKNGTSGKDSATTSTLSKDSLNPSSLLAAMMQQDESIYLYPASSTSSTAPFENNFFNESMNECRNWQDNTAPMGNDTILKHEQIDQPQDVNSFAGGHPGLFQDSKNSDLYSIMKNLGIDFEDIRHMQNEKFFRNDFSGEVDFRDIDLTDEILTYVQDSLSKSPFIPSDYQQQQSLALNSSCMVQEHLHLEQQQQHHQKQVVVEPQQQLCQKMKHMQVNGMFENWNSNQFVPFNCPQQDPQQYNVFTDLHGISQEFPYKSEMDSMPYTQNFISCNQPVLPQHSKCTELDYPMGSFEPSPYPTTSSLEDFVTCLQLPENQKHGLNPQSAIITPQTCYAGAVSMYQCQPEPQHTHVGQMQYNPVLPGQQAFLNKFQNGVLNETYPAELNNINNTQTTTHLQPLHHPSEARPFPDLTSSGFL
Chain of Dual specificity protein kinase CLK2 (P49760 whole entry, looked up): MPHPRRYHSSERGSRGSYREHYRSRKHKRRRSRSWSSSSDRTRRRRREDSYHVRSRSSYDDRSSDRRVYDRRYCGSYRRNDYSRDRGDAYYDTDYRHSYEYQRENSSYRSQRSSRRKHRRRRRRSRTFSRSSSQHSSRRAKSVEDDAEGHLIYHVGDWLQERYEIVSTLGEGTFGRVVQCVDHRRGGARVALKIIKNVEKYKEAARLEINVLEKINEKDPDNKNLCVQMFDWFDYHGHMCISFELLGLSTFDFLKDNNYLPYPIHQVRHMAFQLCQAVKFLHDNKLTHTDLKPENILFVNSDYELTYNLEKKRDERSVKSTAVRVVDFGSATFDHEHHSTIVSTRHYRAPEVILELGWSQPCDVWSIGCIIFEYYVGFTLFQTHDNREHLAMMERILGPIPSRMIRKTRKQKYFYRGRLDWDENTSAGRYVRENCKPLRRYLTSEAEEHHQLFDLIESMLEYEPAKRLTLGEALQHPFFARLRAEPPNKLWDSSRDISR
Chain of Microtubule-associated serine/threonine-protein kinase 3 (Homo sapiens) (O60307 whole entry): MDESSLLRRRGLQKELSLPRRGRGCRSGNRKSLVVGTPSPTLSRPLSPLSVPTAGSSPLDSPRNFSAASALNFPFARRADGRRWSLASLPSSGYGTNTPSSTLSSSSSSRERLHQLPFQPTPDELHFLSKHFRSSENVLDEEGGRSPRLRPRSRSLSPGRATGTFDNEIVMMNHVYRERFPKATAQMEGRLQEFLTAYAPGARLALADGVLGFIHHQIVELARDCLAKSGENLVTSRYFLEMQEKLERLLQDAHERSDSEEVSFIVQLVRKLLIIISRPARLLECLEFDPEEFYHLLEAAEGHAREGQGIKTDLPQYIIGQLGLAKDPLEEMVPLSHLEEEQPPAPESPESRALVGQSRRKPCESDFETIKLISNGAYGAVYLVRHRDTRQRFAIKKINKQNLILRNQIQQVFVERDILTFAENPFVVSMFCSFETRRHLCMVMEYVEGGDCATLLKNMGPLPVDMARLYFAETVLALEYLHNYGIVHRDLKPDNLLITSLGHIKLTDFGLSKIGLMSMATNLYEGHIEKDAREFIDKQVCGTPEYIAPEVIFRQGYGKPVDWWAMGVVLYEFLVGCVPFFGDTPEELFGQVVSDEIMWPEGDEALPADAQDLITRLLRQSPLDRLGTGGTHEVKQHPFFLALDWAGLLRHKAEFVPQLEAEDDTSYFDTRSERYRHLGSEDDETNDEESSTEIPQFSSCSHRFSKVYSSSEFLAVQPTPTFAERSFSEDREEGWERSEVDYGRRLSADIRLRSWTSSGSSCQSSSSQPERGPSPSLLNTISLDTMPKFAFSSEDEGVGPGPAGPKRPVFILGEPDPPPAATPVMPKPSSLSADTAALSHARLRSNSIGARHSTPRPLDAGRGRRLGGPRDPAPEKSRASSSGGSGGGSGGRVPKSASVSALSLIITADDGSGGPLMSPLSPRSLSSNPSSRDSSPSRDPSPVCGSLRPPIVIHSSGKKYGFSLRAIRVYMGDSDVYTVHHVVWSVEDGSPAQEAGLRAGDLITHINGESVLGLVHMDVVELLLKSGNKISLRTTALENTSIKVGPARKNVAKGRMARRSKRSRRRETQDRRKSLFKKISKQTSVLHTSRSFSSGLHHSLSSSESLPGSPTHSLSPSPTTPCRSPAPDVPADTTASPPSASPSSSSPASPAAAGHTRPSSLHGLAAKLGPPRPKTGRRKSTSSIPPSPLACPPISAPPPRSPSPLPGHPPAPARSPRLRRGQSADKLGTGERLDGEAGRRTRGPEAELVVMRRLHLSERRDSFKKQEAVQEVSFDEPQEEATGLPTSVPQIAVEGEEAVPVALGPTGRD
Chain of Atypical kinase COQ8A, mitochondrial (Q8NI60 163-647 limits assumed): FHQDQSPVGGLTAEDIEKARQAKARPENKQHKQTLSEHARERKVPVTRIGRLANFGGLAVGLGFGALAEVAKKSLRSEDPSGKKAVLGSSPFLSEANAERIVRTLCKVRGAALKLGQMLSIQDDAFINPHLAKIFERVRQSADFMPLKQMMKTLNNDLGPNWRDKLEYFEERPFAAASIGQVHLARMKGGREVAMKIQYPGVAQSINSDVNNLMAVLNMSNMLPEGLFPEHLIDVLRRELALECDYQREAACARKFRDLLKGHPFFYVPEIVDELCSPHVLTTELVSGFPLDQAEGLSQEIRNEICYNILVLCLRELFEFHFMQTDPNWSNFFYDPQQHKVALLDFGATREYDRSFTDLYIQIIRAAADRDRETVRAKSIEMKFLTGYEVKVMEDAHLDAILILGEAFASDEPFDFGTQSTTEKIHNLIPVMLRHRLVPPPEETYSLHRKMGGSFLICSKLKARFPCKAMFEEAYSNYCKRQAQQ
Chain of Serine/threonine-protein kinase PLK2 (Q9NYY3 whole entry, looked up): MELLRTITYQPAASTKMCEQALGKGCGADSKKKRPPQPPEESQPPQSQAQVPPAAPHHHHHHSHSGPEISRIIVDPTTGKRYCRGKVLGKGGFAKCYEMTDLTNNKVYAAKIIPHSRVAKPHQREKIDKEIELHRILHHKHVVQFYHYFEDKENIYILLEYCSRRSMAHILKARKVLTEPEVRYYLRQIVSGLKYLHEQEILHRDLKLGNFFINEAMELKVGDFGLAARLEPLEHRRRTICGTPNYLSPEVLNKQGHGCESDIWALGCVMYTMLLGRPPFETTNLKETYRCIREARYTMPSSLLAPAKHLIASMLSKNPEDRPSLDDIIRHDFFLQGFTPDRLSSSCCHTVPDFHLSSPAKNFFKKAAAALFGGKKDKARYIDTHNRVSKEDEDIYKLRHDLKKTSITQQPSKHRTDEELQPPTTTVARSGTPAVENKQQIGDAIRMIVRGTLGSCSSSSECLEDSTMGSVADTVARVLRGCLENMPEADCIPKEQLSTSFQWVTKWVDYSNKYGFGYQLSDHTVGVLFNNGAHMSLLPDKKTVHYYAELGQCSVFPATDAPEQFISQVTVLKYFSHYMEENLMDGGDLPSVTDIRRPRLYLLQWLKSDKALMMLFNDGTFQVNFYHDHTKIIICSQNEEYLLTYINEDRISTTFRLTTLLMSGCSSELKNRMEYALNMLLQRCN

On to `Cn1cc(-n2cnc3c(NCc4nc5cc(Cl)c(Cl)cc5[nH]4)nc(N4CCOCC4)nc32)cn1`, for which the % of control in data set [1] was -6.37%.
On to `N#Cc1cccc(-c2c[nH]c3ncnc(N4CCOCC4)c23)c1`, for which the % of control in [2] was determined as 100%.
Regarding `O=C(NOC[C@H](O)CO)c1ccc(F)c(F)c1Nc1ccc(I)cc1F`, the % of control in [3] was found to be 86%.
In the case of `CNC(=O)Nc1ccc(-c2nc(N3CC4CCC(C3)O4)c3cnn(C4CCC5(CC4)OCCO5)c3n2)cc1`, the % of inhibition is 5% in data set [4]; 3% in data set [5]; 0% in data set [6]; 0% in data set [7]; 4% in [8].
Turning to `Cc1cc([C@@H](C)Nc2ccccc2C(=O)O)c2nc(N3CCOCC3)cc(=O)n2c1` [AZD-6482], the % of control in data set [9] was found to be 100%.
`CC[C@@H]1[C@H](F)C(=O)N[C@@H]1COc1nccc2cc(C(N)=O)c(OC)cc12` [ZIMLOVISERTIB]: the % of inhibition was determined as 5.2% in [10] and 2.83% in data set [11].
As to `C=CC(=O)Nc1cccc(C(=O)Nc2ccc(Nc3cc(-c4[nH]c(SC)nc4C)ccn3)cc2)c1`, the % of control in [12] (at 1 µM) was found to be 99%; in data set [12] (at 5 µM), 75%.
Compound `COc1cc(C(=O)N2CC[C@@H](O)[C@@H](N)C2)cc2nc(-c3cc4ccccc4n3CC3CC3)n(C)c12` had an XC50 in data set [13] of 79.4 µM.
`CN(C)CCOc1ccc(-c2nc(-c3ccncc3)c(-c3ccc4c(c3)CC/C4=N\O)[nH]2)cc1`: the % of control in [14] turned out to be 100%.
As to `CCC(=O)N1CCN(c2ccc(-n3c(=O)ccc4cnc5ccc(-c6cnc7ccccc7c6)cc5c43)cc2C(F)(F)F)CC1`, the % of control in data set [15] came out at 65%; in [16], 71%; in [17], 94%.
With `CN(C)CCCOc1ccc(-c2cc(NCCCn3cccn3)nc(S(C)(=O)=O)n2)cc1`, in [18], the dTM is less than 2 K.
Take `C=CC(=O)Nc1ccc(C(=O)Nc2[nH]nc3c2CN(C(=O)N[C@H](CN(C)C)c2ccccc2)C3(C)C)cc1`: the % of engagement in data set [19] was -0.8%.
